Data taken from patent US20210000890A1, “COMPOSITIONS AND METHODS FOR DENTAL CARE” (The State of Israel, Ministry of Agriculture & Rural …, priority 2019, published 2021).

What was measured:
[1] = tested on: mltD (mannitol-1-phosphate 5-dehydrogenase); experiment: Relative gene expression by real-time RT-PCR; assay type: cell-based, B. subtilis; details: TY with 50 mM sugar alcohol vs TY alone (=1)
Method: (§1) The cultures of either B. subtilis or S. mutans grown as described above, were diluted (1:100 or 1:10 respectively) in TY or TY supplemented with 50 mM sorbitol or mannitol. Next, B. subtilis were grown 37° C. at 150 rpm while S. mutans at 37° C. in 95% air/5% CO2. Samples for each treatment were taken after 3, 6, 12, 18 and 24 hours. One mL of RNA protect (Qiagen, Hilden, Germany) was added to each sample and incubated at RT for 5 min. After, the cells were centrifuged at 4,000×g for 10 min. RNA extraction preformed using GenUP total RNA kit (biotechrabbit, Hennigsdorf, Germany) according to the manufacture's protocol. Reverse transcription was performed using qScript cDNA synthesis kit (Quantabio, Beverly, Mass., USA).The synthesized cDNA was later used for the real-time PCR analysis of key enzymes in the metabolic pathway of S. mutans and B. subtilis (Sorbitol dehydrogenase (gutB) or Mannitol-1-phosphate 5-dehydrogenase (mltD)). The RT-PCR reaction was performed as described previously^33. Briefly, RT-PCR reaction mixture (20 μL) contained 1×SYBR Green (Invitrogen, California, USA), 1 μL cDNA sample and […] of the appropriate forward and reverse PCR primers. PCR conditions included an initial denaturation at 95° C. for 10 min, followed by a 40-cycles of amplification, consisting of denaturation at 95° C. for 15 s and annealing and extension at 60° C. for 1 min. Contamination by residual genomic DNA was determined from control reactions devoid of reverse transcriptase. The expression levels of all the tested genes by real-time PCR were normalized using the 16S rRNA gene of S. mutans as an internal standard ([…] et al., 2007) or sigA gene for B. subtilis.

[2] = tested on: S. mutans biofilm; experiment: Mono and dual-species biofilm formation, biofilm biomass by Crystal Violet staining; assay type: cell-based, Streptococcus mutans UA159; details: S. mutans cultured as monospecies in TY with the sugar alcohol, 24 h
Method: For B. subtilis mono-species biofilm, a starter culture was diluted 1:100 (to obtain final O.D (600 nm)=0.07)) into TY or TY supplemented with either 2% sucrose or sorbitol or mannitol at various concentrations (10, 25,50,100 or 125 mM) in 96-well plate (Nunc, Roskilde, Denmark). The plate was incubated at 37° C. in 95% air/5% CO2 for 24 h.
For S. mutans mono-species biofilm, overnight cultured S. mutans (O.D (600 nm)=1)) were diluted 1:10 into TY or TY supplemented with 2% sucrose (served as controls) or TY supplemented with different concentration of sorbitol or mannitol (10, 25,50,100 or 125 mM) into 96-well plate (Nunc). The plate was incubated at 37° C. in 95% air/5% CO2 for 24 h. For dual-species biofilm, cells of B. subtilis and S. mutans were grown into 96-well plate as follows: to fresh TY or TY supplemented with 2% sucrose or different concentration of sorbitol or mannitol (10, 25, 50, 100 or 125 mM) were introduced overnight cultured S. mutans (diluted by a ratio 1:10, approximately 2.5×10^7 CFU) and B. subtilis (diluted by a ratio 1:100, approximately 2.5×10^5 CFU). […]
The generated submerged biofilms were washed carefully twice with saline solution. […] The extract was placed in a new 96-well plate and O.D. at 595 nm was measured using a plate reader instrument (infinite PRO2000, NEOTEC Scientific Instrumentation Ltd. Camspec, Cambridge, United Kingdom)^31,32.

[3] = tested on: S. mutans; experiment: Growth curve analysis (O.D. 595 nm); assay type: cell-based, Streptococcus mutans UA159; details: for growth of S. mutans: M9 minimal medium, 50 mM as sole carbon source, 16 h; for lag phase of S. mutans: TY medium supplemented with the sugar alcohol, different concentrations
Method: For growth curve analysis, B. subtilis or S. mutans cultures grown as described above, were diluted (1:100 or 1:10 respectively) in TY or TY supplemented with 2% sucrose or different concentration of sorbitol or mannitol. When needed, the bacteria were diluted in M9 medium with 0.2% glucose or 50 mM sorbitol/mannitol. The cultures were then incubated at 37° C. overnight with slight shaking. The growth was recorded every hour using optical density measurement at 595 nm (infinite […]).

[4] = tested on: gutB (sorbitol dehydrogenase); experiment: Relative gene expression by real-time RT-PCR; assay type: cell-based, B. subtilis; details: TY with 50 mM sugar alcohol vs TY alone (=1)
Method: as §1

SMILES	maximal induction rate of mltD ([1]; after 3 hours)	induction of mltD ([1]; after 6 hours until 24 hours)	S. mutans monospecies biofilm compared to the TY control [2]	growth of S. mutans [3]	lag phase of S. mutans [3]	maximal induction rate of gutB ([4]; after 3 hours)	induction of gutB ([4]; after 6 hours until 24 hours)
OC[C@@H](O)[C@@H](O)[C@H](O)[C@H](O)CO [mannitol]	1.6 folds	1.2 fold	enhanced biofilm	did not grow	approximately 3 hours		
OC[C@@H](O)[C@@H](O)[C@H](O)[C@@H](O)CO [sorbitol]			enhanced biofilm	did not grow	approximately 3 hours	2 folds	1.6 fold
